According to PMC4506051, “Pharmacokinetic Profiles of Active Ingredients and Its Metabolites Derived from Rikkunshito, a Ghrelin Enhancer, in Healthy Japanese Volunteers: A Cross-Over, Randomized Study” (PLoS ONE, 2015):

How the values were obtained:
[1] = Dose proportionality (linearity) test by power model for C max and AUC0-last; settings: for Dose proportionality test using power model, Inference: linear when 90% CI of β included 1, CIlower ≥0.8, and CIupper ≤1.25; for Dose proportionality test using power model, β: rikkunshito 2.5, 5.0 or 7.5 g
Method: The dose proportionality was analyzed via a power model [21, 22]. […] Evaluation of linearity of the dosage-exposure relationship was conducted with Phoenix WinNonlin and SAS 9.2 (SAS Institute, Inc., Cary, NC).

GHS-R = target: T1, GHS-R (Homo sapiens, UniProt Q92847); assay: Ghrelin/GHS-R binding activity, radioligand binding using GHS-R-expressing cells (S1 Fig); settings: n = 3, S1 Fig
T1 construct: host or cells: GHS-R-expressing cells (printed 'GSH-R-expressing cells')
Method: Supplementary file pone.0133159.s004.tif: S1 Fig Effect of atractylodin and atractylodin carboxylic acid on ghrelin/GHS-R binding activity. Radioligand binding was performed using GSH-R-expressing cells (n = 3). (TIF) Click here for additional data file.

[2] = Randomized crossover quantitative trial: plasma pharmacokinetics of nine ingredients after rikkunshito 2.5, 5.0 or 7.5 g; settings: for AUC(0-t) / Cmax / Tmax / half-life: human, plasma, po; for AUC(0-t): AUC0-last; for AUC(0-t) / Cmax / half-life / t 1/2: geometric mean (95% CI); for Cmax: C max; for Tmax: Median t max (range); for Tmax / Median t max (range): median (minimum–maximum)
Source text: The first trial was a nonrandomized, open-label, one-period design. The second trial was a randomized, open-label, three-arm, three-period design (Fig 1). With respect to inclusion criteria, the studies included healthy Japanese adults between 20 and 45 years of age with a body mass index between 18 and 25 who were willing and able to comply with the study requirements. Exclusion criteria for this study included a history of significant liver, heart, or vessel disease and consumption of supplements that contained any rikkunshito ingredients or any drug within 3 days to 1 week before the first dose. Other standard exclusion criteria included relevant allergies, pregnant or nursing females, and any alcohol or nicotine use. The sample size was set as more than 15 based on the Ministry of Health, Labour and Welfare’s guidelines. Subjects allocated to a screening test were randomized to one of three groups by the central allocation system (allocation ratio 1:1:1). A random sequence was generated using a computer. The safety endpoint was evaluated in all volunteers. This endpoint was defined on the basis of a physician’s judgement after examination or observation that a serious adverse event had occurred. Adverse events included death, a life-threatening event, an event requiring hospitalization for treatment or an extended stay in hospital, an event resulting in permanent or temporary disability or dysfunction, an event resulting in a congenital abnormality, or any other serious medical phenomenon. With respect to side effects, no specific conditions were defined, and all adverse events for which no causal relationship with the drug could be excluded were deemed to be side effects. In each stage during the 48-h period following rikkunshito administration, the physician monitored the patient for subjective symptoms, objective findings, swelling, body temperature (axillary), blood pressure (sitting), and pulse (sitting). The physician also conducted a hematological examination to measure the patient’s red blood cell, leucocyte and platelet counts, hemoglobin level, and hematocrit value. A biochemical examination was conducted to determine total protein, blood urea nitrogen, creatinine, uric acid, aspartate aminotransferase, alanine aminotransferase, total bilirubin, alkaline phosphatase, γ-glutamyltranspeptidase albumin, prothrombin time, total cholesterol, C-reactive protein, and potassium to identify any abnormalities in comparison with the subject’s condition prior to administration. All participants fasted for 12 h before administration and 4 h after administration of the study drug.
In the second quantitative trial, 12-mL blood samples were collected at 0 (preadministration), 0.25, 0.5, 1, 2, 3, 4, 6, 8, 10, 12, 24, and 48 h after a single oral administration of rikkunshito (Lot H05142). A total of 3 daily doses were used in this trial, i.e., the clinical dose per administration (2.5 g) as the lowest dose, the clinical daily dose (7.5 g) as the highest dose, and an intermediate dose (5.0 g), to broadly discuss the pharmacokinetic characteristics of the ingredients measured. The trial participants were hospitalized overnight on the day they ingested rikkunshito, and returned home the following day after blood samples were collected at the 24-h time point. The participants returned to the hospital to provide blood samples at 48 h. The blood was immediately centrifuged at 1700 ×g for 15 min to obtain plasma. Plasma fractions were stored at −20°C or lower until analysis.
Plasma, urine, and rikkunshito formulation samples were analyzed for rikkunshito ingredients concentrations using a liquid chromatography–mass spectrometry with tandem mass spectrometer assay (LC–MS/MS; API5000, Triple Quad 6500, or QTRAP5500; AB Sciex, Tokyo, Japan) or gas chromatography–mass spectrometry. Further information of analytical methods can be found at S1 Appendix.

[3] = 2.5 g, rikkunshito 2.5 g single oral, n = 21
[4] = 5 g, rikkunshito 5.0 g single oral, n = 19
[5] = 7.5 g, rikkunshito 7.5 g single oral, n = 19
[6] = rikkunshito 7.5 g single oral, n = 19
[7] = rikkunshito 7.5 g single oral, n = 19, listed as atractylodin carboxylic acid

T1 sequence (Q92847 whole entry, species assumed): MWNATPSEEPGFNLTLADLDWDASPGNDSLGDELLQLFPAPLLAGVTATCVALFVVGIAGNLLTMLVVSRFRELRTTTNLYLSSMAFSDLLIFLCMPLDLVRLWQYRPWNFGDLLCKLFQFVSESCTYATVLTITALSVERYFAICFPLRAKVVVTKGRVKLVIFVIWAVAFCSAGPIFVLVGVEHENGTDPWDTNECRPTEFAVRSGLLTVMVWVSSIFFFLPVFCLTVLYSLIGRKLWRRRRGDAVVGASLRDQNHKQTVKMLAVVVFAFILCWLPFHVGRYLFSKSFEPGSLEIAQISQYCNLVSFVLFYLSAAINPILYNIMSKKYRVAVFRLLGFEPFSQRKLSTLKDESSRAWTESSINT

O=C(O)/C=C/C#CC#C/C=C/c1ccco1 [Atractylodin carboxylic acid]
Dose proportionality test using power model, Inference ([1]; AUC0-last): Linear
Dose proportionality test using power model, β ([1]; AUC0-last): 1.08
Dose proportionality test using power model, Inference ([1]; Cmax): Linear
Dose proportionality test using power model, β ([1]; Cmax): 1.05
Ghrelin/GHS-R binding (ghrelin signal enhancement) activity compared with atractylodin (GHS-R): as potent as atractylodin
C max of metabolite relative to unchanged form (atractylodin) ([2]; after administration of 7.5 g rikkunshito): 5.7–31.5 fold
AUC(0-t) [2, 3]: 3.91 ng·h/mL
Cmax [2, 3]: 4.45 ng/mL
Tmax [2, 3]: 15 min
half-life ([2]; 2.5 g, t 1/2, rikkunshito 2.5 g single oral, n = 21): 34.8 min
AUC(0-t) [2, 4]: 8.74 ng·h/mL
Cmax [2, 4]: 9.57 ng/mL
Tmax [2, 4]: 15 min
half-life ([2]; 5 g, t 1/2, rikkunshito 5.0 g single oral, n = 19): 38.2 min
AUC(0-t) [2, 5]: 12.7 ng·h/mL
Cmax [2, 5]: 14.3 ng/mL
t 1/2 [2, 6]: 0.663 (0.560–0.790) h
t 1/2 [2, 7]: < 10 h
Median t max (range) [2, 6]: 0.250 (0.250–0.500) h
Median t max (range) [2, 7]: ≤ 1 h
